Results reported in patent publication US20260315487A1, “IKK-ALPHA INHIBITORS” (Cancer Research Technology Limited, priority 2023, published 2026).
Read-outs that look alike come from different tables or passages of the source.

What was measured:
[1] = system: IKKα over IKKβ; details: previous work [6]; cited from earlier work
[2] = molecular target: T1, IKKα (Homo sapiens, UniProt O15111); details: previous work [6]; read-out: IKKα inhibitory activity (Ki) of previous hit; cited from earlier work
T1 sequence (O15111 1-745): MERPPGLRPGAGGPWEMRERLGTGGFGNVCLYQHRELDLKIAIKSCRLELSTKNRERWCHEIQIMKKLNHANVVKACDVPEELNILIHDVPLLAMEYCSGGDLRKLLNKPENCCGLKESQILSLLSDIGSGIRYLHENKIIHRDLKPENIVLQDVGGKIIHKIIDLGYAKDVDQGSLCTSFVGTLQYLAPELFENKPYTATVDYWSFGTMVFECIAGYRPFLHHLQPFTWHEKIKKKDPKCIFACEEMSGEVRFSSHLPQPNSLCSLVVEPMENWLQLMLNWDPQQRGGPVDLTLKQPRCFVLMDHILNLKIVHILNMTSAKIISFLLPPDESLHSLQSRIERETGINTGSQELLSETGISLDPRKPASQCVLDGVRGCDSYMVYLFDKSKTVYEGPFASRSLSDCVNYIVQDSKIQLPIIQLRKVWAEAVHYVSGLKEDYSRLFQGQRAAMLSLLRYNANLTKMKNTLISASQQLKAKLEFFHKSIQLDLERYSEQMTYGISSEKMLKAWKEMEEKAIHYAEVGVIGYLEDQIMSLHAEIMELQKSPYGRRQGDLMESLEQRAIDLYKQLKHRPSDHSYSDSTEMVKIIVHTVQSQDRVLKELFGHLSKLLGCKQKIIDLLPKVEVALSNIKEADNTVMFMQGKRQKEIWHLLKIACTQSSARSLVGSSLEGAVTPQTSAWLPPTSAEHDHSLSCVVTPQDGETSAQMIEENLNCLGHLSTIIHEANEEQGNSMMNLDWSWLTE

[3] = system: U2OS cells; details: cited from earlier work
[4] = molecular target: CDK9 (Homo sapiens, UniProt P50750); experiment: kinome profiling at 1 μM, CDK9; assay type: biochemical; details: read-out: % inhibition of CDK9
CDK9, sequence (P50750 whole entry, species assumed): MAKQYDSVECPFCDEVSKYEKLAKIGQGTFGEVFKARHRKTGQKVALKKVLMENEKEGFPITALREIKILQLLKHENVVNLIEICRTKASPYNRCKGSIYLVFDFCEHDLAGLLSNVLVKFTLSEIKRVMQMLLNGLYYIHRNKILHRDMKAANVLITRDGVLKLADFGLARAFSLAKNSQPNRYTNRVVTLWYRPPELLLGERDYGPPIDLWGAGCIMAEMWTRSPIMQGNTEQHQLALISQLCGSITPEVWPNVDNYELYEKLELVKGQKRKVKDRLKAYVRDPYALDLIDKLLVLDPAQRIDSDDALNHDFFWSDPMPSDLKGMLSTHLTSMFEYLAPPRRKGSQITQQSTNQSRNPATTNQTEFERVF
CDK9, sequence (O60563 whole entry partner, species assumed): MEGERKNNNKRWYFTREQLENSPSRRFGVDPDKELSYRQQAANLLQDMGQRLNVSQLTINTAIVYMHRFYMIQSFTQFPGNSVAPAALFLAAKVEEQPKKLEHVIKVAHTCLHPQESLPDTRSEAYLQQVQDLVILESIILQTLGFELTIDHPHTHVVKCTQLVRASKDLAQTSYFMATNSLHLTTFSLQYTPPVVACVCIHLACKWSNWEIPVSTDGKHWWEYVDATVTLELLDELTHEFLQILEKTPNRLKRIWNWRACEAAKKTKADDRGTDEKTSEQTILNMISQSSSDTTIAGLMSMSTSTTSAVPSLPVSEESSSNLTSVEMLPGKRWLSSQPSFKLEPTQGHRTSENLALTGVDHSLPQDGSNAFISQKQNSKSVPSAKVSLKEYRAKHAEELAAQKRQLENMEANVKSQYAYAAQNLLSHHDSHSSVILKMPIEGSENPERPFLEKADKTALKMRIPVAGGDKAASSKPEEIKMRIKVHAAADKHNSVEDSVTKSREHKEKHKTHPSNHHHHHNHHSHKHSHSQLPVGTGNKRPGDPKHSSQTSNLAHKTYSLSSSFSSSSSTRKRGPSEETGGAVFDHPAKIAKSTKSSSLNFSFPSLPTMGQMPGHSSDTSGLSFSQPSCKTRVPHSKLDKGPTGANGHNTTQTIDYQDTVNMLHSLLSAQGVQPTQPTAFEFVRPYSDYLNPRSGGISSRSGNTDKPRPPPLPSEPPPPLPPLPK
Description: (§1) We profiled three compounds from the series across the kinome (FIG. 11). […] To identify the structural drivers for CDK inhibition, we obtained X-ray crystal structures of 5 y and 6 g SU1336 and SU1349 with CDK-2 (FIG. 12A) to potentially identify possible routes towards introducing selectivity for IKKα over the CDK enzymes as well as IKKβ. […] All three derivatives form complexes with CDK2 with the pyrrolo[2,3 -b]pyridine H-bonding to GK+3 (Leu 83 ) and the aminoindazole projected towards the G-loop (FIG. 12A), forming H-bonds with Glu 51 and Lys 33 at the back of the pocket. The adoption of the 4 SU1253 -type orientation, rather than the flipped pose observed in IKKα, is probably facilitated by Tr-stacking between the aminoindazole and the GK residue, which in the CDKs is Phe, rather than Met. […] For 6 g SU1349, the hydrophobic pendant benzyloxy group points out into solvent, but can form face-to-edge Tr-Tr interactions with Phe 82 and His 84 from the hinge. Exchanging the hydrophobic pendant benzyloxy group for the morpholinoethyl-containing substituent in 5 y SU1336 removes any direct interaction with these hinge residues, preferring to sit in a more solvent-exposed position, as befits a basic side chain that will be protonated at physiological pH (FIG. 12B).
(§2) Black, 4 SU1253; grey, 5 r SU1261; diagonal stripes, 6 g SU1349. […] All tested compounds (4 SU1253, 5 r SU1261 and 6 g SU1349 ) inhibited CDK5 and CDK9 with >80 %.

[5] = molecular target: CDK5 (Homo sapiens, UniProt Q00535); experiment: kinome profiling at 1 μM, CDK5; assay type: biochemical; details: read-out: % inhibition of CDK5
CDK5, sequence (Q00535 whole entry, species assumed): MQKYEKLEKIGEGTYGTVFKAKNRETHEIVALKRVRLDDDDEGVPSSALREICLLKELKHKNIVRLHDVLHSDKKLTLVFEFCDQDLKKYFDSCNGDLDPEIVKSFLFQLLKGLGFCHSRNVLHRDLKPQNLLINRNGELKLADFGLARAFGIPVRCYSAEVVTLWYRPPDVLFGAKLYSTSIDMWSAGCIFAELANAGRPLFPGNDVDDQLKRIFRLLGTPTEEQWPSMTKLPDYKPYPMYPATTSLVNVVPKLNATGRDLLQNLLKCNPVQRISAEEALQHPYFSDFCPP
CDK5, sequence (Q15078 99-307 partner limits assumed, species assumed): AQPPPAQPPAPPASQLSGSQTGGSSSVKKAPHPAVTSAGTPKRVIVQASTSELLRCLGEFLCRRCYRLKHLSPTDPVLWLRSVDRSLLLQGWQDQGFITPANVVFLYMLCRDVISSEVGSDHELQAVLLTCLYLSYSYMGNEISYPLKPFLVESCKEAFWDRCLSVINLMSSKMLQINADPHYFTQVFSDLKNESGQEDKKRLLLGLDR
Description: as §1, §2

[6] = molecular target: T1, IKKα; experiment: in-house DELFIA kinase assay, IKKα; assay type: biochemical
Description: (§3) To examine the pyrrolo[2,3 -b]pyridines as an alternative scaffold, we adopted the AIPP core because it had similar dimensions to 1 SU909, with HBD/HBA motifs positioned at the scaffold extremities to interact with both the hinge region and the G-loop wall of IKKα, a rationale we had previously proposed as the basis for imparting selectivity. A preliminary set of AIPP derivatives was designed to explore its utility as an IKK-targeting scaffold, whilst incorporating additional functionality through which to introduce selectivity for the IKKα isoform (2-4 SU1087, SU1266 and SU1253; FIG. 3). This was achieved by initially adopting two different approaches: either appending a hydrophobic moiety to the pyrrolo[2,3 -b]pyridine motif as a fused form to afford the tricyclic derivatives 2 and 3 SU1266 and SU1087, or as a phenyl substituent to introduce flexibility with the central pyrrolo[2,3 -b]pyridine moiety in 4 SU1253 . […] The pyrrolo[2,3 -b]pyridine was bound to the hinge region in the classical HBA/HBD motif with the GK+3 NH and C═O backbone, whilst the aminoindazole projected towards the top of the pocket to interact with the G-loop (FIG. 4A). […] In both isoforms, the 2 -phenyl moiety was oriented out from the hinge towards the exposed solvent area.

[7] = molecular target: T2, IKKβ (Homo sapiens, UniProt O14920); experiment: in-house DELFIA kinase assay, IKKβ; assay type: biochemical
T2 sequence (O14920 1-756): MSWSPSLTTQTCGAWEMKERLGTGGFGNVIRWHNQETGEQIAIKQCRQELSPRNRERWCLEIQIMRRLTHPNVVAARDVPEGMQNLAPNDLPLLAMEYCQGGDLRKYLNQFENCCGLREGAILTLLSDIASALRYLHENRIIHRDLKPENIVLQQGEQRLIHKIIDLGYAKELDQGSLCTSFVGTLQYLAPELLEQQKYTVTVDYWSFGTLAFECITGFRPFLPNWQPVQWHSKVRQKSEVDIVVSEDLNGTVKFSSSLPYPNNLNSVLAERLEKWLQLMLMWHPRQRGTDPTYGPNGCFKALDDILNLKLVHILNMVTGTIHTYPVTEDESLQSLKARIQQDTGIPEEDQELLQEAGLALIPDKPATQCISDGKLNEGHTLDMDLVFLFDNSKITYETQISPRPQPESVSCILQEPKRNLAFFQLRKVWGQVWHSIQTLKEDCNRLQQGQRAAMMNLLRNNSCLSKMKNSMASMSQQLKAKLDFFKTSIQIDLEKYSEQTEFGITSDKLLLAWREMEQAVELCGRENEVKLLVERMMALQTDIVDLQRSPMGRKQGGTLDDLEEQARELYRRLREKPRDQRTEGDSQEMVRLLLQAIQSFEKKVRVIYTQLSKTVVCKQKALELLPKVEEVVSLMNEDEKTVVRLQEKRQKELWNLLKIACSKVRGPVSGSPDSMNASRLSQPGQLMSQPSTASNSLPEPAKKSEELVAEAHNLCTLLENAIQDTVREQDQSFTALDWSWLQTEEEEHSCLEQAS
Description: To examine the pyrrolo[2,3 -b]pyridines as an alternative scaffold, we adopted the AIPP core because it had similar dimensions to 1 SU909, with HBD/HBA motifs positioned at the scaffold extremities to interact with both the hinge region and the G-loop wall of IKKα, a rationale we had previously proposed as the basis for imparting selectivity. A preliminary set of AIPP derivatives was designed to explore its utility as an IKK-targeting scaffold, whilst incorporating additional functionality through which to introduce selectivity for the IKKα isoform (2-4 SU1087, SU1266 and SU1253; FIG. 3). This was achieved by initially adopting two different approaches: either appending a hydrophobic moiety to the pyrrolo[2,3 -b]pyridine motif as a fused form to afford the tricyclic derivatives 2 and 3 SU1266 and SU1087, or as a phenyl substituent to introduce flexibility with the central pyrrolo[2,3 -b]pyridine moiety in 4 SU1253 .

[8] = system: panel of kinases; experiment: kinome profiling at 1 μM; assay type: biochemical
Description: as §1, §2

[9] = Turbidimetric solubility; assay type: physicochemical
[10] = mouse hepatocyte clearance (cryopreserved pooled mouse CD1 hepatocytes); assay type: in vitro ADME; details: mouse, hepatocytes; 1 μM; 0.5×10^6 cells/mL; 37° C.
Description: Pharmacokinetic studies were contracted to Sygnature Discovery Limited. Intrinsic clearance and half life were determined using cryopreserved pooled mouse CD1 hepatocytes. Test compounds were analysed at 1 μM in Williams Media E buffer (0.01 % DMSO) at a cell density of 0.5×10^6 cells mL^−1 . Cells were incubated at 37° C. for one hour with shaking and compound depletion was measured by LC-MS/MS at six timepoints (0.25, 5, 10, 20, 40, and 60 minutes).

[11] = system: IKKα over IKKβ; experiment: selectivity for IKKα over IKKβ from the kinase assay; assay type: biochemical
Description: as §3
To shift the selectivity profile towards IKKα, we selected 4 SU1253 for structural optimization based on the notion that sigma-bond rotation between the phenyl ring and the pyrrolo[2,3 -b]pyridine would inbuild the flexibility required to engage with the three dimensional array of residues nearby to exploit differences between the two isoforms. Furthermore, this would enable the inclusion of moieties that could also project into solvent and address solubility considerations. Small groups (NH2, OH, OMe, OEt and F) were initially introduced into the phenyl ring to evaluate their impact on the selectivity profile against both IKKs (5 a-g SU1354 -SU1373, Table 2 ). Our goal was to achieve a 1:50 selectivity ratio of IKKα to IKKβ, with a minimum IKKβ inhibitory Ki of 500 nM.

SMILES | selective inhibition of IKKα, in words [1] | Ki [2] [nM] | selectivity in U2OS cells, in words [3] | inhibition at 1 µM [4] [%] | inhibition at 1 µM [5] [%] | Ki [6] [nM] | Ki [7] [nM] | kinome selectivity, in words [8] | number of kinases inhibited by >80 % ([8]; panel of 231 kinases) [kinases] | number of kinases inhibited by >80 % ([8]; panel of 253 kinases (FIG. 11)) [kinases] | solubility, in words [9] | IKKβ inhibition, in words [7] | hepatocyte CLint [10] [µL/min/1e6 cells] | selectivity for IKKα over IKKβ, in words [11]
N#Cc1c[nH]c2nc(N)nc(-c3ccc(S(N)(=O)=O)cc3)c12 [1 SU909] | selective inhibitor of IKKα | 80 | recapitulated this discrimination in U2OS cells |  |  |  |  |  |  |  |  |  |  | 
Nc1n[nH]c2ccc(-c3ccnc4[nH]c(-c5ccccc5)cc34)cc12 [4 SU1253, 5-(2 -Phenyl-1 H-pyrrolo[2,3-b]pyridin-4-yl)-1 H-indazol-3-amine] |  |  |  | > 80 | > 80 | 3 | 15 | very promiscuous | 44 | 46 |  |  |  | 
Nc1n[nH]c2ccc(-c3ccnc4[nH]c(-c5ccnc(OCc6ccncc6)c5)cc34)cc12 [6k SU1628, 5-(2-(2-(Pyridin-4-ylmethoxy)pyridin-4-yl)-1 H-pyrrolo[2,3-b]pyridin-4-yl)-1 H-indazol-3-amine] |  |  |  |  |  | 6 | 12 |  |  |  | requisite solubility | potent inhibition against IKKβ | 11 | equipotent against both isoforms
